# Measured values published in PubChem BioAssay (NCI).
#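 1) Cells in 96-well plates. 2) Compound, 48 h, 5 concentrations. 3) Linear interpolation between surrounding doses. 4) Unreached endpoint = highest concentration. At the GI50, growth is halved. At the TGI there is no net growth.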
# Assays:
# Test in all cases: NCI anticancer screen, dose series, 48 h
# SN12C renal = tested on: SN12C renal
# PC-3 prostate = tested on: PC-3 prostate
# MDA-MB-435 = tested on: MDA-MB-435
# NCI-H460 lung = tested on: NCI-H460 lung
# HL-60(TB) leukemia = tested on: HL-60(TB) leukemia
# SF-539 CNS = tested on: SF-539 CNS
# UO-31 renal = tested on: UO-31 renal
# DU-145 prostate = tested on: DU-145 prostate
# CCRF-CEM leukemia = tested on: CCRF-CEM leukemia
# HOP-62 NSCLC = tested on: HOP-62 NSCLC
# MCF7 breast = tested on: MCF7 breast
# LOX IMVI melanoma = tested on: LOX IMVI melanoma
# OVCAR-3 ovarian = tested on: OVCAR-3 ovarian
# A549 NSCLC = tested on: A549 NSCLC
# SF-268 CNS = tested on: SF-268 CNS
# MALME-3M melanoma = tested on: MALME-3M melanoma
# A498 renal = tested on: A498 renal
# OVCAR-5 ovarian = tested on: OVCAR-5 ovarian
# HCT-15 colon = tested on: HCT-15 colon
# SK-OV-3 ovarian = tested on: SK-OV-3 ovarian
# HCC-2998 colon = tested on: HCC-2998 colon
# RXF 393 renal = tested on: RXF 393 renal
# SNB-19 CNS = tested on: SNB-19 CNS
# UACC-62 melanoma = tested on: UACC-62 melanoma
# U251 CNS = tested on: U251 CNS
# RPMI-8226 leukemia = tested on: RPMI-8226 leukemia
# SK-MEL-5 melanoma = tested on: SK-MEL-5 melanoma
# COLO 205 colon = tested on: COLO 205 colon
# SK-MEL-28 melanoma = tested on: SK-MEL-28 melanoma
# OVCAR-4 ovarian = tested on: OVCAR-4 ovarian
# KM12 colon = tested on: KM12 colon
# SF-295 CNS = tested on: SF-295 CNS
# M14 melanoma = tested on: M14 melanoma
# HT29 colon = tested on: HT29 colon
# UACC-257 melanoma = tested on: UACC-257 melanoma
# SK-MEL-2 melanoma = tested on: SK-MEL-2 melanoma
# BT-549 breast = tested on: BT-549 breast
# SNB-75 CNS = tested on: SNB-75 CNS
# K-562 leukemia = tested on: K-562 leukemia
# MOLT-4 leukemia = tested on: MOLT-4 leukemia
# SW-620 colon = tested on: SW-620 colon
# TK-10 renal = tested on: TK-10 renal
# NCI/ADR-RES ovarian = tested on: NCI/ADR-RES ovarian
# ACHN renal = tested on: ACHN renal
# HOP-92 NSCLC = tested on: HOP-92 NSCLC
# 786-0 renal = tested on: 786-0 renal
# NCI-H522 lung = tested on: NCI-H522 lung
# IGROV1 ovarian = tested on: IGROV1 ovarian
# NCI-H226 lung = tested on: NCI-H226 lung
# OVCAR-8 ovarian = tested on: OVCAR-8 ovarian
# SR leukemia = tested on: SR leukemia
# HCT-116 colon = tested on: HCT-116 colon
# EKVX NSCLC = tested on: EKVX NSCLC
# MDA-MB-231 breast = tested on: MDA-MB-231 breast
# NCI-H23 lung = tested on: NCI-H23 lung
# T-47D breast = tested on: T-47D breast
smiles,measurement,setting,value
Cc1cc(C(=O)O)c(C)n1-c1cccc(C(=O)O)c1,GI50,SN12C renal,> 100 µM
same,TGI,SN12C renal,> 100 µM
same,GI50,PC-3 prostate,> 100 µM
same,TGI,PC-3 prostate,> 100 µM
same,GI50,MDA-MB-435,> 100 µM
same,TGI,MDA-MB-435,> 100 µM
same,GI50,NCI-H460 lung,> 100 µM
same,TGI,NCI-H460 lung,> 100 µM
same,GI50,HL-60(TB) leukemia,> 100 µM
same,TGI,HL-60(TB) leukemia,> 100 µM
same,GI50,SF-539 CNS,> 100 µM
same,TGI,SF-539 CNS,> 100 µM
same,GI50,UO-31 renal,> 100 µM
same,TGI,UO-31 renal,> 100 µM
same,GI50,DU-145 prostate,> 100 µM
same,TGI,DU-145 prostate,> 100 µM
same,GI50,CCRF-CEM leukemia,> 100 µM
same,TGI,CCRF-CEM leukemia,> 100 µM
same,GI50,HOP-62 NSCLC,> 100 µM
same,TGI,HOP-62 NSCLC,> 100 µM
same,GI50,MCF7 breast,> 100 µM
same,TGI,MCF7 breast,> 100 µM
same,GI50,LOX IMVI melanoma,> 100 µM
same,TGI,LOX IMVI melanoma,> 100 µM
same,GI50,OVCAR-3 ovarian,> 100 µM
same,TGI,OVCAR-3 ovarian,> 100 µM
same,GI50,A549 NSCLC,> 100 µM
same,TGI,A549 NSCLC,> 100 µM
same,GI50,SF-268 CNS,> 100 µM
same,TGI,SF-268 CNS,> 100 µM
same,GI50,MALME-3M melanoma,> 100 µM
same,TGI,MALME-3M melanoma,> 100 µM
same,GI50,A498 renal,> 100 µM
same,TGI,A498 renal,> 100 µM
same,GI50,OVCAR-5 ovarian,> 100 µM
same,TGI,OVCAR-5 ovarian,> 100 µM
same,GI50,HCT-15 colon,> 100 µM
same,TGI,HCT-15 colon,> 100 µM
same,GI50,SK-OV-3 ovarian,> 100 µM
same,TGI,SK-OV-3 ovarian,> 100 µM
same,GI50,HCC-2998 colon,> 100 µM
same,TGI,HCC-2998 colon,> 100 µM
same,GI50,RXF 393 renal,> 100 µM
same,TGI,RXF 393 renal,> 100 µM
same,GI50,SNB-19 CNS,> 100 µM
same,TGI,SNB-19 CNS,> 100 µM
same,GI50,UACC-62 melanoma,> 100 µM
same,TGI,UACC-62 melanoma,> 100 µM
same,GI50,U251 CNS,> 100 µM
same,TGI,U251 CNS,> 100 µM
same,GI50,RPMI-8226 leukemia,> 100 µM
same,TGI,RPMI-8226 leukemia,> 100 µM
same,GI50,SK-MEL-5 melanoma,> 100 µM
same,TGI,SK-MEL-5 melanoma,> 100 µM
same,GI50,COLO 205 colon,> 100 µM
same,TGI,COLO 205 colon,> 100 µM
same,GI50,SK-MEL-28 melanoma,> 100 µM
same,TGI,SK-MEL-28 melanoma,> 100 µM
same,GI50,OVCAR-4 ovarian,> 100 µM
same,TGI,OVCAR-4 ovarian,> 100 µM
same,GI50,KM12 colon,> 100 µM
same,TGI,KM12 colon,> 100 µM
same,GI50,SF-295 CNS,> 100 µM
same,TGI,SF-295 CNS,> 100 µM
same,GI50,M14 melanoma,> 100 µM
same,TGI,M14 melanoma,> 100 µM
same,GI50,HT29 colon,> 100 µM
same,TGI,HT29 colon,> 100 µM
same,GI50,UACC-257 melanoma,> 100 µM
same,TGI,UACC-257 melanoma,> 100 µM
same,GI50,SK-MEL-2 melanoma,> 100 µM
same,TGI,SK-MEL-2 melanoma,> 100 µM
same,GI50,BT-549 breast,> 100 µM
same,TGI,BT-549 breast,> 100 µM
same,GI50,SNB-75 CNS,> 100 µM
same,TGI,SNB-75 CNS,> 100 µM
same,GI50,K-562 leukemia,> 100 µM
same,TGI,K-562 leukemia,> 100 µM
same,GI50,MOLT-4 leukemia,> 100 µM
same,TGI,MOLT-4 leukemia,> 100 µM
same,GI50,SW-620 colon,> 100 µM
same,TGI,SW-620 colon,> 100 µM
same,GI50,TK-10 renal,> 100 µM
same,TGI,TK-10 renal,> 100 µM
same,GI50,NCI/ADR-RES ovarian,> 100 µM
same,TGI,NCI/ADR-RES ovarian,> 100 µM
same,GI50,ACHN renal,> 100 µM
same,TGI,ACHN renal,> 100 µM
same,GI50,HOP-92 NSCLC,> 100 µM
same,TGI,HOP-92 NSCLC,> 100 µM
same,GI50,786-0 renal,> 100 µM
same,TGI,786-0 renal,> 100 µM
same,GI50,NCI-H522 lung,> 100 µM
same,TGI,NCI-H522 lung,> 100 µM
same,GI50,IGROV1 ovarian,> 100 µM
same,TGI,IGROV1 ovarian,> 100 µM
same,GI50,NCI-H226 lung,> 100 µM
same,TGI,NCI-H226 lung,> 100 µM
same,GI50,OVCAR-8 ovarian,> 100 µM
same,TGI,OVCAR-8 ovarian,> 100 µM
same,GI50,SR leukemia,> 100 µM
same,TGI,SR leukemia,> 100 µM
same,GI50,HCT-116 colon,> 100 µM
same,TGI,HCT-116 colon,> 100 µM
same,GI50,EKVX NSCLC,> 100 µM
same,TGI,EKVX NSCLC,> 100 µM
same,GI50,MDA-MB-231 breast,> 100 µM
same,TGI,MDA-MB-231 breast,> 100 µM
same,GI50,NCI-H23 lung,> 100 µM
same,TGI,NCI-H23 lung,> 100 µM
same,GI50,T-47D breast,> 100 µM
same,TGI,T-47D breast,> 100 µM
